This note sets out measurements from US10774121B2, “Methods and compositions for treating neurodegenerative disorders and Alzheimer's Disease and improving normal memory” (The Regents of the University of California, priority 2006, dated 2020).

For one assay, the system named is Aβ production. Kind of assay: ELISA of Aβ produced in β-APP-only:PS-1-only co-culture extracts. It is filed as cell-based, mouse. Particulars: synthetic peptides 0-3 μM added at the time of the co-culture. As to the method: Co-cultures of β-APP-only and PS-1-only cells were carried out in the presence and absence of Peptide 1-80 (0-3 μM). ^35S-GTPγS assays were carried out on extracts as a measure of G-protein activation. The Aβ produced in these co-culture extracts was determined by ELISA.
ES-derived mouse cells (PS-1^−/−; PS-2^−/−) that expressed only small amounts of endogenous β-APP but no PS, were transiently transfected with cDNA for human β-APP to produce cells expressing excess human β-APP over mouse β-APP, and no PS-1 or PS-2 (β-APP-only cells). Embryonic (E18) mouse primary fibroblasts derived from β-APP-null mice, expressing only small amounts of endogenous PS-1 and PS-2, were transfected with cDNAs for human PS-1 to produce cells expressing excess human over mouse PS-1 but no β-APP (PS-1-only cells). The minigenes were co-transfected with PS-1 in the PS-only APP−/− fibroblasts to inhibit the endogenous mouse Gα under investigation in those cells. PS−/− ES cells were separately transfected with human β-APP cDNA (β-APP only cells) and the two types of cells were co-cultured for 24 hours. Cells were harvested and detergent-buffer extracts of the co-cultures were prepared. Determination of [^35S]GTPγS incorporation in these cultures was carried out in the presence and absence of each minigene: Aliquots each containing 100 μg total protein were reacted with ^35S-GTPγS and immunoprecipitation of each ^35S-GTPγS-treated extract was carried out with antibodies directed to the particular Gα under investigation. Specificity of binding of a particular Gα to PS-1 was established by blocking of GTPγS incorporation in the presence of the specific minigene inhibitor.
Co-culture of β-APP-only with PS-1-only cells was carried out as described above.
ELISA for the production of Aβ1-40 was carried out using sandwich ELISA kits (Biosource).
(In general: ELISA stands for enzyme-linked immunosorbent assay.)

The next assay addresses T1, Gαs (Rattus norvegicus, UniProt P63095).
T1 construct: tissue Applied Cell Science, Rockville, Md; host or cells: rat hippocampal membranes, solubilized in CHAPS buffer
Kind of assay: Stimulation of 35S-GTPγS binding to Gs by PS-1 cytoplasmic peptides in rat hippocampal membrane preparations. The class given is biochemical. Particulars: peptides 200 μM, rat hippocampal membranes. As to the method:
(§1) The autonomous activation of G-proteins Gαo, Gαq and Gαs by oligopeptides corresponding to cytoplasmic loops 1, 2, 3 and the COOH tail of human PS-1 in the 7-TM PS model were examined. The peptides were individually tested for their ability to stimulate ^35S-GTPγS binding to each G-protein in rat hippocampal membrane preparations.
(§2) Rat hippocampal membranes (Applied Cell Science, Rockville, Md.) were solubilized in CHAPs buffer.
(§3) Peptides (200 μM) were incubated without pre-treatment with solubilized rat hippocampal membranes (50 μg) in the ^35S reaction mixture. Accumulation of γ-S GTP the ^35S-GTPγS was determined after immunoprecipitation with the specific anti-G Ab.
On the technique in general: GTPγS resists hydrolysis and so accumulates on activated G proteins.

The target of the next assay is T2, Gαq (Rattus norvegicus, UniProt P82471).
T2 sequence (P82471 1-359): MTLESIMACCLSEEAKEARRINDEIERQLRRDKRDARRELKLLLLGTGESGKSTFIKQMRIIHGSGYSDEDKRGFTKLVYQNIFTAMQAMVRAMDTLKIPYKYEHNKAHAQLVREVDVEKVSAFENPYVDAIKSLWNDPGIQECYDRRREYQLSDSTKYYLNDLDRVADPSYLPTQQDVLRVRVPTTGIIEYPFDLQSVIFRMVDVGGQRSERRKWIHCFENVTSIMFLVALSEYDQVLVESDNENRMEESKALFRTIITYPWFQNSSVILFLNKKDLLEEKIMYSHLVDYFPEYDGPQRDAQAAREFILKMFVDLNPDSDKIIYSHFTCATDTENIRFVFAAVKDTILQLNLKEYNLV
The assay can be described thus: Stimulation of 35S-GTPγS binding to Gq by PS-1 cytoplasmic peptides in rat hippocampal membrane preparations. Particulars: peptides 200 μM, rat hippocampal membranes. The class given is biochemical. Here is the method: as §1, §2, §3

Assay [1] has as its target T3, Gαo (Rattus norvegicus, UniProt P59215).
T3 construct: tissue Applied Cell Science, Rockville, Md; host or cells: rat hippocampal membranes, solubilized in CHAPS buffer
The assay can be described thus: Stimulation of 35S-GTPγS binding to Go by PS-1 cytoplasmic peptides in rat hippocampal membrane preparations. The class given is biochemical. The settings on record: peptides 200 μM; for stimulation of 35S-GTPγS binding to Go: rat hippocampal membranes.
From the text: To provide evidence that the GoA binding observed in FIG. 5A was directly to PS-1, and not to a co-immunoprecipitated, PS-associated protein the autonomous activation of Go by synthetic peptide fragments corresponding to cytoplasmic loops 1, 2, 3 and the carboxyl tail of PS-1 (in the 7-TM PS model) were investigated (see FIGS. 20B and C and Table 1). The peptides were individually tested for their ability to stimulate ^35S-GTPγS binding to Go in rat hippocampal membrane preparations.
as §1, §2, §3

Assay [2] has as its system protein tyrosine kinase activity. The assay can be described thus: Protein tyrosine kinase ELISA on extracts of β-APP-transfected ES double-null cells mixed with PS-1-transfected DAMI cells. The class given is cell-based. The settings on record: 25 μg protein added, 0-20 min after mixing. Here is the method:
DAMI:ES cells: Equal numbers (0.5×10^6/ml) of β-APP 695 (Selkoe and Podlisny, 2002)-transfected ES double-null cells and PS-1 transfected DAMI cells were co-cultured at 37° C. for various times between 0-20 mins.
At several times between 0 and 20 min after mixing, an aliquot of each cell mixture was rapidly centrifuged, the culture medium was removed, and the cell pellet was suspended in 200 μl of extraction buffer (50 mM Tris, pH 8.0/150 mM NaCl/0.5% Nonidet-P40) containing protease inhibitors (1 mM 4-(2-aminoethyl) benzene sulfonyl fluoride hydrochloride (AEBSF)/1 μg/ml antipain/0.1 μg/ml pepstatin A/0.1 μg/ml leupeptin) and the phosphatase inhibitor sodium orthovanadate (0.1 mM). The mixture was sonicated with three bursts of 20 sec duration and then centrifuged. These extract supernatants were then used for Western blot and ELISA analyses as described below.
ELISAs Protein tyrosine kinase activity was measured by an Enzyme Linked Immunosorbent Assay (ELISA) using a tyrosine kinase assay kit (Upstate Biotechnology). A biotinylated substrate peptide containing tandem repeats of Poly (Glu4-Tyr) was incubated with supernatants of extracts of transfected cells mixed for different times ([…]) in the presence of non-radioactive ATP and a Mn^2+/Mg^2+ co-factor cocktail according to the manufacturer's protocols. A phosphotyrosine specific mouse monoclonal antibody (4G10) conjugated to horseradish peroxidase was used to detect the phosphorylated substrate by ELISA.
ES double-null cells transfected with β-APP were mixed with DAMI cells transfected with PS-1, and were co-cultured for various times between 0-20 min, using cell densities that ensured cell-cell contact. ELISA assays were then carried out on cell extracts to measure protein tyrosine kinase activity. […]

The subject of assay [3] is Gαo. Kind of assay: 35S-GTPγS incorporation after addition of β-APPs to cell cultures, immunoprecipitation with Gαo antibodies. It is filed as cell-based, mouse. Here is the method:
In addition, water-soluble β-APP ectodomain itself (B-APPs), when added to cultures of PS-1-only cells, could also activate G-proteins in a dose-dependent manner. β-APPs was partially purified from conditioned media of baculovirus cultures over-expressing human β-APP. The final product (FIG. 18b, lane 1) had, in addition to β-APP, three major contaminating bands at 81 kDa, 55 kDa and 31 kDa that co-purified with the β-APP ectodomain. This partially purified β-APPs preparation was added in increasing amounts to PS-1-only APP^−/− fibroblasts. After 15 mins the cells from each well were harvested in extraction buffer, and detergent extracts (each containing 100 μg protein) were treated with ^35S-GTPγS. Activation of Gαo was assayed after immunoprecipitation of the activated ^35S-GTPγS-Gαo with the Gαo-specific antibodies. […] Furthermore, when partially purified β-APPs was added to untransfected ES (PS^−/−) cells, no increase in G-protein activation was observed by ^35S-GTPγS assays (FIG. 18A, curve 5), further implicating PS as a receptor for the β-APP ligand in the Gαo activation.
To confirm that it was indeed the β-APPs in the partially purified β-APPs preparation that was the ligand responsible for G-protein activation, and not one of the contaminants, β-APPs was removed from the preparation by treatment with MAb 348 to β-APP (see FIG. 18C, lane 2). This β-APPs-depleted solution at the same concentrations used for the non-depleted preparation, was added to the PS-1-only cells, which were then treated exactly as described above. […] In contrast, the β-APPs preparation similarly treated with an irrelevant IgG when added to PS-1-only cells, gave results that resembled those obtained with the untreated samples (FIG. 18A, curve 2).
(§4) ^35S-GTPγS Assays: Extract (100 μg of total protein) was mixed with an equal volume of GTPγS Buffer B (50 mM HEPES/NaOH pH 7.4, 40 μM GDP, 50 mM MgCl2, 100 mM NaCl) and reacted with 50 nM ^35S-GTPγS (1250 Ci/mmol, Perkin Elmer, Waltham, Mass.) for 60 min at RT. The reaction was stopped with 10× Stopping buffer (100 mM Tris-HCl, pH 8, 25 mM MgCl2, 100 mM NaCl, 20 mM GTP) followed by immunoprecipitation of the ^35S-GTPγS-Gαo complex with Ab against a particular Gα. The Ab-protein complex was absorbed to Protein A/G agarose for 90 min at RT and washed. The agarose beads were suspended in scintillation fluid (CytoScint, ICN) (5 ml) and counted in a Beckman Coulter LS 6000 SC scintillation counter for 3 min.

The test system of a further assay is G-protein Go. The assay can be described thus: 35S-GTPγS incorporation after addition of β-APPs to solubilized rat hippocampal membranes. The class given is biochemical. Here is the method: Because the results so far described were obtained using only cultured cells transfected with human PS, binding of the endogenous rat PS proteins with rat Gαo present in rat hippocampal membranes was examined. […]
as §4, §2

Entries after “also recorded” stand apart in the source; their conditions may differ.

T1 sequence (P63095 whole entry): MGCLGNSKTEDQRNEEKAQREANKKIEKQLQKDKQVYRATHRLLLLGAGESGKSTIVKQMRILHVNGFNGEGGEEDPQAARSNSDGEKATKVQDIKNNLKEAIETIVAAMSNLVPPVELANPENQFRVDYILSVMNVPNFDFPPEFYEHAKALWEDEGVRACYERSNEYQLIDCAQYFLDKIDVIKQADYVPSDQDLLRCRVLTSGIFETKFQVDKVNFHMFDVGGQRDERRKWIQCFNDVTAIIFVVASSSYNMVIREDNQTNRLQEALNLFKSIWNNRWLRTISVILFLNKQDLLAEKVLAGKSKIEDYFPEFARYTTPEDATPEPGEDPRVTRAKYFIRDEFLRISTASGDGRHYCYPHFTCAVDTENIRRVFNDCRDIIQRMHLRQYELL
T3 sequence (P59215 whole entry): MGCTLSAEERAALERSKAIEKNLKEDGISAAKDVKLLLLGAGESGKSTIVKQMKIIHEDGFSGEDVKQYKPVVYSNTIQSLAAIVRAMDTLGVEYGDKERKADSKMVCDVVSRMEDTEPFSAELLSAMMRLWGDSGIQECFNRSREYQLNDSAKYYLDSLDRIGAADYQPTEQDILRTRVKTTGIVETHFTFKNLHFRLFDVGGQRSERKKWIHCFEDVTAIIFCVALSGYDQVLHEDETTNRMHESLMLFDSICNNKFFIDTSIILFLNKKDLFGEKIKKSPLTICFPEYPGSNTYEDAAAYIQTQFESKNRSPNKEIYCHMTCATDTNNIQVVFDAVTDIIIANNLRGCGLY

As to “DEEEDEEL [Peptide 8, 8-mer of the PS-1 N-terminal domain]”, in the assay with Aβ production, the “cell-cell interaction and Aβ production, ELISA” value is on record as “inhibits”.
Same read-out and setting: in the case of “DEEEDEELTLKYGAK [Peptide 7, 15-mer of the PS-1 N-terminal domain]” it was “inhibits”.
Turning to “KSVSFYTRKDGQLIYT [ic1(1-16), PS-1 cytoplasmic loop 1 peptide]”, the “stimulation of 35S-GTPγS binding to Gs” value with Gαs was “not”.
For “KYLPE [ic3, PS-1 cytoplasmic loop 3 peptide]”, the “stimulation of 35S-GTPγS binding to Gq” value in the assay with Gαq is recorded as “robust stimulation”. Moreover, the “stimulation of 35S-GTPγS binding to Go” value with Gαo [1] was “robust stimulation”. Besides, the “increase in activation of 35S-GTPγS binding over samples without peptide” value with Gαo [1] (rat membranes) was found to be 200%. The “stimulation of 35S-GTPγS binding to Gs” value in the assay with Gαs was “only background stimulation”.
On to “N-terminal domain of PS-1 fused to FLAG: fusion protein with FLAG attached at the N-terminus of the PS-1 N-terminal domain, grown in DH5α bacteria”, for which the “transient increase in protein tyrosine kinase activity after cell mixing” value in assay [2] was “specifically inhibited; also recorded: none of the increases”; in assay [2] (listed as FLAG reporter fused to the N-terminal domain of PS-1), “no increase”.
For the substance “PFTEDTETVGQRALHS [ic1(17-32), PS-1 cytoplasmic loop 1 peptide]”, the “stimulation of 35S-GTPγS binding to Gs” value with Gαs is recorded as “induced stimulation”.
Regarding “RRSLGHPEPLSNGRP [Peptide 4, 15-mer of the PS-1 N-terminal domain]”, in the assay on Aβ production, the “cell-cell interaction and Aβ production, ELISA” value is “inhibits”.
In the case of “TDYLVQPFMDQLAFHQFYI [C(21-39), remaining 19 amino acids of the PS-1 cytoplasmic C-terminal tail]”, in the assay with Gαq, the “stimulation of 35S-GTPγS binding to Gq” value is “robust stimulation”. Further, the “stimulation of 35S-GTPγS binding to Go” value with Gαo [1] (listed as COOH-terminal peptide corresponding to residues 21-39) is recorded as “failed to activate; also recorded: no detectable Go activation”. The “stimulation of 35S-GTPγS binding to Gs” value in the assay with Gαs is “induced stimulation”.
As to “VFKTYNVAVD [ic2, PS-1 cytoplasmic loop 2 peptide]”, in the assay with Gαq, the “stimulation of 35S-GTPγS binding to Gq” value is given as “only background stimulation”. Moreover, in the assay with Gαo [1], the “stimulation of 35S-GTPγS binding to Go” value is “only background stimulation”. Further, the “stimulation of 35S-GTPγS binding to Gs” value with Gαs is “only background stimulation”.
On to “β-APPs: water-soluble β-APP ectodomain, baculovirus-derived, purified or partially purified”, for which the 35S-GTPγS incorporation entry was “increased ^35S-GTPgS incorporation in a dose-dependent manner” in the assay on Gαo [3] (PS-1-only APP-/- fibroblast cultures, increasing β-APPs, 15 mins); “modest G-protein activation; also recorded: only modest increases” in the assay on Gαo [3] (untransfected APP-/- fibroblasts expressing only endogenous PS); “no increase; also recorded: no significant increases” in the assay with Gαo [3] (untransfected ES (PS-/-) cells); “did not occur; also recorded: no increase” with G-protein Go (PS-depleted rat membranes (pre-treated with polyclonal Ab to PS-1 and PS-2)); “increased ^35S-GTPgS incorporation in a dose-dependent manner” in the assay on G-protein Go (solubilized rat hippocampal membranes (100 μg), 0-400 pM β-APPs, 15 min). Moreover, in the assay with Gαo [3] (PS-1-only APP-/- fibroblasts, 120 pM β-APPs), the “maximum increase in incorporation of 35S-GTPγS” value is “over 500%”. The “incorporation of 35S-GTPγS greater than untreated samples” value in the assay with G-protein Go (rat hippocampal membranes, 80 pM β-APPs) came to 100%. Further, in the assay on G-protein Go (rat hippocampal membranes, 400 pM β-APPs), the “increase in G-protein Go activation” value is given as “greater than 600%”. Moreover, the “transient increase in protein tyrosine kinase activity after cell mixing” value in assay [2] is reported as “specifically inhibited; also recorded: no increase; also recorded: none of the increases”.
